Data published in the NIST ThermoML archive (doi:10.1021/je201107a).
Numbers after ± are expanded uncertainties.

Key:
[1] = mn = molality of the nth substance listed, in mol/kg; conditions: 298.15 K, Ring tensiometer
[2] = cn = amount concentration of the nth substance listed, in mol/dm3; conditions: 298.15 K, Ring tensiometer

CCCCCCCCCCCCCC[N+](C)(C)C.[Br-] [tetradecyltrimethylammonium bromide] + O
[1]
Conditions	surface tension liquid-gas [mN/m]
m1 = 0.0005	53.96 ± 0.7
m1 = 0.00099	52.31 ± 0.69
m1 = 0.00148	46.35 ± 0.62
m1 = 0.00196	41.65 ± 0.56
m1 = 0.00244	39 ± 0.53
m1 = 0.00291	36.35 ± 0.5
m1 = 0.00338	34.05 ± 0.47
m1 = 0.00385	33.87 ± 0.47
m1 = 0.00431	35.02 ± 0.49
m1 = 0.00476	36.24 ± 0.5
m1 = 0.00521	35.86 ± 0.49
m1 = 0.00566	36.33 ± 0.5
m1 = 0.0061	36.74 ± 0.5
m1 = 0.00654	36.6 ± 0.5
m1 = 0.00698	36.81 ± 0.51

CCCCCCCCCC[N+](C)(C)C.[Br-] [N,N,N-trimethyl-1-decanaminium bromide] + O
[2]
Conditions	surface tension liquid-gas [mN/m]
c1 = 0.0118	54.43 ± 0.71
c1 = 0.0211	48.37 ± 0.64
c1 = 0.0286	45.75 ± 0.61
c1 = 0.0348	42.87 ± 0.58
c1 = 0.04	40.18 ± 0.55
c1 = 0.0444	37.98 ± 0.52
c1 = 0.0464	37.19 ± 0.51
c1 = 0.0483	36.21 ± 0.5
c1 = 0.05	36.15 ± 0.5
c1 = 0.0516	36.47 ± 0.5
c1 = 0.0531	35.98 ± 0.5
c1 = 0.0545	35.88 ± 0.49
c1 = 0.0559	36.19 ± 0.5
c1 = 0.0571	36.31 ± 0.5

CCCCCCCCCCCC[N+](C)(C)C.[Br-] [dodecyltrimethylammonium bromide] + O
[1]
Conditions	surface tension liquid-gas [mN/m]
m1 = 0.0005	55.13 ± 0.72
m1 = 0.00099	55.56 ± 0.72
m1 = 0.00148	53.67 ± 0.7
m1 = 0.00196	53.93 ± 0.7
m1 = 0.00244	53.53 ± 0.7
m1 = 0.00291	52.63 ± 0.69
m1 = 0.00338	52.13 ± 0.68
m1 = 0.00476	49.16 ± 0.65
m1 = 0.00654	45.2 ± 0.6
m1 = 0.00826	42.32 ± 0.57
m1 = 0.00991	39.41 ± 0.54
m1 = 0.0115	36.77 ± 0.51
m1 = 0.013	34.09 ± 0.47
m1 = 0.0138	34.98 ± 0.49
m1 = 0.0145	37.44 ± 0.51
m1 = 0.0153	37.98 ± 0.52
m1 = 0.016	38.33 ± 0.52
m1 = 0.0167	38.47 ± 0.52
m1 = 0.0177	38.69 ± 0.53
m1 = 0.0184	38.46 ± 0.52

CCCCCCCCCCCC[N+](C)(C)[O-] [Dodecyldimethylamine oxide] + O
[1]
Conditions	surface tension liquid-gas [mN/m]
m1 = 0.00025	43.18 ± 0.58
m1 = 0.0005	39.98 ± 0.54
m1 = 0.00074	39.2 ± 0.53
m1 = 0.00099	36.87 ± 0.51
m1 = 0.00123	35.11 ± 0.49
m1 = 0.00148	33.73 ± 0.47
m1 = 0.00172	33.19 ± 0.46
m1 = 0.00196	33.32 ± 0.46
m1 = 0.00244	34.06 ± 0.48
m1 = 0.00291	34.05 ± 0.47
m1 = 0.00338	34.22 ± 0.48
m1 = 0.00385	34.14 ± 0.47
m1 = 0.00431	34.17 ± 0.47
